Measured values reported in patent US12059425B2, “Heterocyclic compounds and uses thereof” (Kumquat Biosciences Inc., priority 2022, dated 2024).

Key:
K-Ras G12D = target: T1, K-Ras G12D (Homo sapiens, UniProt P01116, G12D); experiment: PPI-HTRF assay, K-Ras G12D / SOS1 interaction; format: biochemical; conditions: HTRF, K-Ras G12D; read-out: PPI-HTRF-5 nM (K-Ras G12D IC50)
T1 construct: made in house; host or cells: E. coli, e.g. BL21 (DE3)
Procedure, shortened: (§1)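 GST-tagged K-Ras (WT or mutant) bound to anti-GST-Eu was mixed with His-hSOS1 bound to anti-6His-XL665 in pH 7.4 HEPES/NaCl/DTT/BSA/Igepal buffer. After ~10 min or longer, HTRF was read (ex 337 nm, em 620/665 nm). IC50 was derived from the 665/620 ratio, with duplicates tested from 10 μM down to 0.01 μM.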

K-Ras G12S = target: T2, K-Ras G12S (Homo sapiens, UniProt P01116, G12S); experiment: PPI-HTRF assay, K-Ras G12S / SOS1 interaction; format: biochemical; conditions: read-out: PPI-HTRF-5 nM (K-Ras G12S IC50)
T2 construct: made in house; host or cells: E. coli, e.g. BL21 (DE3)
T2 sequence (P01116 1-188 isoform P01116-2 G12S): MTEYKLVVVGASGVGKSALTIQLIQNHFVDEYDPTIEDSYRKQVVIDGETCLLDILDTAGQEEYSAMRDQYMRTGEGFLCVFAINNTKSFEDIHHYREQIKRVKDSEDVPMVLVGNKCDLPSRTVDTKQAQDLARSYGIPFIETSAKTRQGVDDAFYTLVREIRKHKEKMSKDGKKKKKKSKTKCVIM
Procedure, shortened: as §1

A549 cells = experiment: Ras cellular assay, cell proliferation A549; format: cell-based; conditions: Homo sapiens
Procedure, shortened: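 G12S-mutant A549 cells (800/well) in RPMI-1640 plus 10% heat-inactivated FBS, standard or ultra-low attachment 384-well plates, dosed the day after plating with a 10-point 3-fold series. Viability by CellTiter-Glo luminescence about 6 days later; IC50 from four-parameter fit.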

K-Ras G12V = target: T3, K-Ras G12V (Homo sapiens, UniProt P01116, G12V); experiment: PPI-HTRF assay, K-Ras G12V / SOS1 interaction; format: biochemical; conditions: HTRF, K-Ras G12V; read-out: PPI-HTRF-5 nM (K-Ras G12V IC50)
T3 construct: made in house; host or cells: E. coli, e.g. BL21 (DE3)
T3 sequence (P01116 1-188 isoform P01116-2 G12V): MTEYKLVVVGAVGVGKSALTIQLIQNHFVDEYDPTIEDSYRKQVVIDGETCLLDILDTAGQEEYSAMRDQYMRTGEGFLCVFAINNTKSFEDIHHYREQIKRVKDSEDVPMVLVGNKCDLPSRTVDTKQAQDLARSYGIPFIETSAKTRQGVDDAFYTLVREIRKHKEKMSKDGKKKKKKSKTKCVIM
Procedure, shortened: as §1

SW620 cells = experiment: Ras cellular assay, cell proliferation SW620; format: cell-based; conditions: Homo sapiens, SW-620
Description: For example, this assay can be also used to assess selective growth inhibition of a mutant Ras protein relative to a wildtype, or relative to a different mutant Ras protein.

GP2D cells = experiment: Ras cellular assay, cell proliferation GP2D; format: cell-based
Procedure, shortened: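 GP2D cells (G12D Ras mutant) seeded (e.g., 800/well) and treated the next day with a dilution series (e.g., 9-point, 3-fold). After approximately 5 days, viability measured by CellTiter-Glo luminescence; IC50 from four-parameter fit.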

wildtype K-Ras = target: T4, wildtype K-Ras (Homo sapiens, UniProt P01116); experiment: PPI-HTRF assay, wildtype K-Ras / SOS1 interaction; format: biochemical; conditions: HTRF, K-Ras wt; read-out: PPI-HTRF-5 nM (K-Ras wt IC50)
T4 construct: made in house; host or cells: E. coli, e.g. BL21 (DE3)
T4 sequence (P01116 1-188 isoform P01116-2): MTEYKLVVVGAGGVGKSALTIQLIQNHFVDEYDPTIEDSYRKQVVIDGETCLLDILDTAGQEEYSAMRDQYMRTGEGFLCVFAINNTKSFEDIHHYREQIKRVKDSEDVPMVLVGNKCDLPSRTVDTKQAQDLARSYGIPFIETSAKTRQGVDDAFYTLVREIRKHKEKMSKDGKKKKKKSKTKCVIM
Procedure, shortened: as §1

Measured: IC50

T1 sequence (P01116 1-188 isoform P01116-2 G12D): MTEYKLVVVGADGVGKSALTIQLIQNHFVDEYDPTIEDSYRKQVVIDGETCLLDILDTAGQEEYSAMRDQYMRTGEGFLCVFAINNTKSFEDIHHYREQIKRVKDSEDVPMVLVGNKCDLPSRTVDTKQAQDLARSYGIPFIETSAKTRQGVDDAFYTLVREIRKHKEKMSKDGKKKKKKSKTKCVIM

N#CCC1CCC2COc3c(Cl)c(-c4ccc(F)c5sc(N)c(C#N)c45)c(F)c4nc(OCC56CCCN5C[C@H](F)C6)nc(c34)N2C1 (stereo partly drawn) [compound 204, 2-amino-4-(6-chloro-11-(cyanomethyl)-4-fluoro-2-(((2R)-2-fluorotetrahydro-1H-pyrrolizin-7a(5H)-yl)methoxy)-8,8a,9,10,11,12-hexahydropyrido[2′,1′:3,4][1,4]oxazepino [5,6,7-de]quinazolin-5-yl)-7-fluorobenzo[b]thiophene-3-carbonitrile]
< 5 µM: all assays above

N#Cc1c(N)sc2c(F)ccc(-c3c(Cl)c4c5c(nc(OC[C@@]67CCCN6C[C@H](F)C7)nc5c3F)N3CC[C@H]3CO4)c12 [compound 192, 2-amino-4-((11aS)-9-chloro-7-fluoro-5-(((2R,7aS)-2-fluorotetrahydro-1H-pyrrolizin-7a(5H)-yl)methoxy)-1,2,11,11a-tetrahydroazeto[2′,1′:3,4][1,4]oxazepino [5,6,7-de]quinazolin-8-yl)-7-fluorobenzo[b]thiophene-3-carbonitrile]
< 5 µM: all assays above

N#Cc1c(N)sc2c(F)ccc(-c3c(Cl)c4c5c(nc(OC[C@@]67CCCN6C[C@H](F)C7)nc5c3F)N(CC(F)F)C3CNCC3O4)c12 (stereo partly drawn) [compound 175, 2-amino-4-(6-chloro-11-(2,2-difluoroethyl)-4-fluoro-2-(((2R,7aS)-2-fluorotetrahydro-1H-pyrrolizin-7a(5H)-yl)methoxy)-7a,8,9,10,10a,11-hexahydropyrrolo[3′,4′:2,3][1,4]oxazepino [5,6,7-de]quinazolin-5-yl)-7-fluorobenzo[b]thiophene-3-carbonitrile]
< 5 µM: all assays above

CN1c2nc(OC[C@@]34CCCN3C[C@H](F)C4)nc3c(F)c(-c4ccc(F)c5sc(N)c(C#N)c45)c(Cl)c(c23)OC2CNCC21 (stereo partly drawn) [compound 214, 2-amino-4-(6-chloro-4-fluoro-2-(((2R,7aS)-2-fluorotetrahydro-1H-pyrrolizin-7a(5H)-yl)methoxy)-11-methyl-7a,8,9,10,10a,11-hexahydropyrrolo[3′,4′:2,3][1,4]oxazepino [5,6,7-de]quinazolin-5-yl)-7-fluorobenzo[b]thiophene-3-carbonitrile]
> 5 µM: A549 cells | SW620 cells | GP2D cells
< 5 µM: all other assays above

COC[C@H]1C[C@H]2COc3c(Cl)c(-c4ccc(F)c5sc(N)c(C#N)c45)c(F)c4nc(OC[C@@]56CCCN5C[C@H](F)C6)nc(c34)N21 [compound 173, 2-amino-4-(9-chloro-7-fluoro-5-(((2R,7aS)-2-fluorotetrahydro-1H-pyrrolizin-7a(5H)-yl)methoxy)-2-(methoxymethyl)-1,2,11,11a-tetrahydroazeto[2′,1′:3,4][1,4]-oxazepino[5,6,7-de]quinazolin-8-yl)-7-fluorobenzo[b]thiophene-3-carbonitrile]
< 5 µM: all assays above

N#Cc1c(N)sc2c(F)ccc(-c3c(Cl)c4c5c(nc(OC[C@@]67CCCN6C[C@H](F)C7)nc5c3F)N3CC[C@H]3CCO4)c12 [compound 207, 2-amino-4-((12aS)-9-chloro-7-fluoro-5-(((2R,7aS)-2-fluorotetrahydro-1H-pyrrolizin-7a(5H)-yl)methoxy)-1,11,12,12a-tetrahydro-2H-azeto[11,2′:5,6][1,5]oxazocino[4,3,2-de]quinazolin-8-yl)-7-fluorobenzo[b]thiophene-3-carbonitrile]
< 5 µM: all assays above

N#Cc1c(N)sc2c(F)ccc(-c3c(Cl)c4c5c(nc(OCC67CCCN6C[C@H](F)C7)nc5c3F)N3CC(CO)CCC3CO4)c12 (stereo partly drawn) [compound 215, 2-amino-4-(6-chloro-4-fluoro-2-(((2R)-2-fluorotetrahydro-1H-pyrrolizin-7a(5H)-yl)methoxy)-11-(hydroxymethyl)-8,8a,9,10,11,12-hexahydropyrido[2′,1′:3,4][1,4]oxazepino [5,6,7-de]quinazolin-5-yl)-7-fluorobenzo[b]thiophene-3-carbonitrile]
< 5 µM: all assays above

N#Cc1c(N)sc2c(F)ccc(-c3c(Cl)c4c5c(nc(OC[C@@]67CCCN6C[C@H](F)C7)nc5c3F)N3CCC(C#N)CC3CO4)c12 (stereo partly drawn) [compound 205, 5-(2-amino-3-cyano-7-fluorobenzo[b]thiophen-4-yl)-6-chloro-4-fluoro-2-(((2R,7aS)-2-fluorotetrahydro-1H-pyrrolizin-7a(5H)-yl)methoxy)-8,8a,9,10,11,12-hexahydropyrido[2′,1′:3,4][1,4]oxazepino [5,6,7-de]quinazoline-10-carbonitrile]
< 5 µM: all assays above

N#Cc1c(N)sc2c(F)ccc(-c3c(Cl)c4c5c(nc(OC[C@@]67CCCN6C[C@H](F)C7)nc5c3F)N3C(CCCC3C(F)F)CO4)c12 (stereo partly drawn) [compound 189, 2-amino-4-(6-chloro-12-(difluoromethyl)-4-fluoro-2-(((2R,7aS)-2-fluorotetrahydro-1H-pyrrolizin-7a(5H)-yl)methoxy)-8,8a,9,10,11,12-hexahydropyrido[2′,1′:3,4][1,4]oxazepino [5,6,7-de]quinazolin-5-yl)-7-fluorobenzo[b]thiophene-3-carbonitrile]
< 5 µM: all assays above

N#CCC1CN2c3nc(OC[C@@]45CCCN4C[C@H](F)C5)nc4c(F)c(-c5ccc(F)c6sc(N)c(C#N)c56)c(Cl)c(c34)OCCC12 (stereo partly drawn) [compound 114, 2-amino-4-(9-chloro-1-(cyanomethyl)-7-fluoro-5-(((2R,7aS)-2-fluorotetrahydro-1H-pyrrolizin-7a(5H)-yl)methoxy)-1,11,12,12a-tetrahydro-2H-azeto[1′,2′:5,6][1,5]oxazocino[4,3,2-de]quinazolin-8-yl)-7-fluorobenzo[b]thiophene-3-carbonitrile]
< 5 µM: all assays above

CN1c2nc(OC[C@@]34CCCN3C[C@H](F)C4)nc3c(F)c(-c4ccc(F)c5sc(N)c(C#N)c45)c(Cl)c(c23)OCC2CN(C(=O)[C@H]3CN3)CC21 (stereo partly drawn) [compound 124, 2-amino-4-(10-((R)-aziridine-2-carbonyl)-6-chloro-4-fluoro-2-(((2R,7aS)-2-fluorotetrahydro-1H-pyrrolizin-7a(5H)-yl)methoxy)-12-methyl-8a,9,10,11,11a,12-hexahydro-8H-pyrrolo[3′,4′:6,7][1,5]oxazocino[4,3,2-de]quinazolin-5-yl)-7-fluorobenzo[b]thiophene-3-carbonitrile]
> 5 µM: A549 cells
< 5 µM: all other assays above

N#Cc1c(N)sc2c(F)ccc(-c3c(Cl)c4c5c(nc(OC[C@@]67CCCN6C[C@H](F)C7)nc5c3F)N3[C@H](CO4)C[C@@H]4OCC[C@@H]43)c12 [compound 133, 2-amino-4-((5aS,6aS,9aS)-3-chloro-1-fluoro-12-(((2R,7aS)-2-fluorotetrahydro-1H-pyrrolizin-7a(5H)-yl)methoxy)-5a,6,6a,8,9,9a-hexahydro-5H-furo[2″,3″:4′,5′]pyrrolo[2′,1′:3,4][1,4]oxazepino[5,6,7-de]quinazolin-2-yl)-7-fluorobenzo[b]thiophene-3-carbonitrile]
< 5 µM: all assays above
